According to a polymer gas permeability compilation:

| SMILES | CH4 permeability | CO2 permeability | N2 permeability | O2 permeability | H2 permeability |
| --- | --- | --- | --- | --- | --- |
| *Oc1ccc(S(=O)(=O)c2ccc(Oc3ccc(Oc4ccc(*)cc4)cc3)cc2)cc1 (repeat unit) | 0.179 Barrer | 4.3 Barrer | 0.196 Barrer | 1.1 Barrer | – |
| *c1ccc2c(c1C)N1Cc3ccc(N4C(=O)c5ccc(C(c6ccc7c(c6)C(=O)N(*)C7=O)(C(F)(F)F)C(F)(F)F)cc5C4=O)c(C)c3N(C2)C1 (repeat unit) | 6.3 Barrer | 190 Barrer | 10 Barrer | 50 Barrer | 322 Barrer |
| *Oc1ccc(S(=O)(=O)c2ccc(Oc3c(C)cc(Cc4cc(C)c(*)c(C)c4)cc3C)cc2)cc1 (repeat unit) | 0.577 Barrer | 15 Barrer | 0.611 Barrer | 3.3 Barrer | 34.5 Barrer |
| *=CC1CC(C=*)C2C(=O)N(C3CCCC3)C(=O)C12 (repeat unit) | 0.54 Barrer | 8.8 Barrer | 0.45 Barrer | 1.95 Barrer | – |
| *Oc1c(C)cc(C(C)(C)c2cccc(C(C)(C)c3cc(C)c(Oc4ccc(S(=O)(=O)c5ccc(*)cc5)cc4)c(C)c3)c2)cc1C (repeat unit) | 0.28 Barrer | 7 Barrer | 0.281 Barrer | 1.8 Barrer | 20 Barrer |
| *c1cc(C(c2ccc(O)c(N3C(=O)c4cc5c(cc4C3=O)C3(C)c4ccccc4C5(C)c4cc5c(cc43)C(=O)N(*)C5=O)c2)(C(F)(F)F)C(F)(F)F)ccc1O (repeat unit) | 0.565 Barrer | 35 Barrer | 1.2 Barrer | 7.45 Barrer | 83.5 Barrer |
| *Oc1c(Br)cc(C(c2cc(Br)c(OC(*)=O)c(Br)c2)(C(F)(F)F)C(F)(F)F)cc1Br (repeat unit) | 0.89 Barrer | 32 Barrer | 1.8 Barrer | 9.7 Barrer | 10.6 Barrer |
| *c1ccc(Cc2ccc(N3C(=O)c4ccc(-c5ccc6c(c5)C(=O)N(*)C6=O)cc4C3=O)cc2F)c(F)c1 (repeat unit) | 0.0129 Barrer | 0.542 Barrer | 0.0203 Barrer | 0.143 Barrer | – |
| *c1ccc2c(c1)C(=O)n1c-2nc2ccc(Oc3ccc4c(c3)nc3n4C(=O)c4ccc(C(*)(C(F)(F)F)C(F)(F)F)cc4-3)cc21 (repeat unit) | – | – | 0.81 Barrer | 5.04 Barrer | 54.9 Barrer |
| *Oc1ccc(S(=O)(=O)c2ccc(Oc3ccc(C4(c5ccc(*)c(C)c5)CCCCC4)cc3C)cc2)cc1 (repeat unit) | 0.0393 Barrer | 1.4 Barrer | 0.0569 Barrer | 0.41 Barrer | – |
| *C[Si](*)(C)C (repeat unit) | 130 Barrer | 549 Barrer | 38 Barrer | 99 Barrer | – |
| *Oc1ccc2c(c1)-c1nc3cc(Oc4ccc5nc6n(c5c4)C(=O)c4cc(*)ccc4-6)ccc3n1C2=O (repeat unit) | – | – | 0.026 Barrer | 0.22 Barrer | 6.88 Barrer |
| *CC(*)[Si](C)(C)c1ccccc1 (repeat unit) | – | 12.3 Barrer | 0.45 Barrer | 2.47 Barrer | – |
| *CC(*)(C)C(=O)OC(C)(C)C (repeat unit) | 0.719 Barrer | 15.1 Barrer | 0.768 Barrer | 4.53 Barrer | 62.2 Barrer |
| *C/C(C)=C(\C)C* (repeat unit) | 0.786 Barrer | 7.47 Barrer | 0.472 Barrer | 2.1 Barrer | 17 Barrer |
| *c1cccc(C(c2cccc(-c3nnc(*)n3-c3ccccc3)c2)(C(F)(F)F)C(F)(F)F)c1 (repeat unit) | 4.66 Barrer | 132 Barrer | 5.93 Barrer | 26.1 Barrer | – |
| *Oc1ccc(C(C)(C)c2ccc(OC(=O)c3cccc(C(=O)Oc4cc(-c5cc(*)cc6ccccc56)c5ccccc5c4)c3)cc2)cc1 (repeat unit) | 0.148 Barrer | 4 Barrer | 0.139 Barrer | 0.93 Barrer | – |
| *c1ccc(Oc2cc3c(cc2C)OC2(CC3(C)C)CC(C)(C)c3cc(Oc4ccc(*)cc4)c(C)cc3O2)cc1 (repeat unit) | 0.77 Barrer | 29.3 Barrer | 1.33 Barrer | 6.17 Barrer | – |
| *C(=C(*)c1ccc(-c2ccc(C(C)(C)C)cc2)cc1)c1ccccc1 (repeat unit) | 190 Barrer | 1220 Barrer | 70.5 Barrer | 195 Barrer | 455 Barrer |
| *c1cc(C)c(N2C(=O)c3ccc(C(c4ccc5c(c4)C(=O)N(*)C5=O)(C(F)(F)F)C(F)(F)F)cc3C2=O)c(C)c1 (repeat unit) | 0.349 Barrer | 17.9 Barrer | 0.499 Barrer | 3.53 Barrer | – |
| *Oc1cc2c(cc1O*)C1(CC2(C)C)CC(C)(C)c2cc3oc4cc5c(=O)n(-c6c(C)c(C)c(N7C(=O)c8cc(*)c(*)cc8C7=O)c(C)c6C)c(=O)c5cc4oc3cc21 (repeat unit) | 27 Barrer | 520 Barrer | 23 Barrer | 85 Barrer | 360 Barrer |
| *Oc1ccc(C(=O)c2ccccc2-c2ccccc2C(=O)c2ccc(Oc3ccc(C(c4ccc(*)cc4)(C(F)(F)F)C(F)(F)F)cc3)cc2)cc1 (repeat unit) | 0.087 Barrer | 3.12 Barrer | 0.146 Barrer | 0.99 Barrer | – |
